Measurements: US5085991A, “Process of preparing purified aqueous indole solution” (Mitsui Toatsu Chemicals, Inc., priority 1987, dated 1992)
Read-outs that look alike come from different tables or passages of the source.

Tests used:
[1] = target: tryptophan synthase (Escherichia coli, UniProt P0A879); assay: Activity of immobilized tryptophan synthase source after standing in aqueous solutions of organic impurities; format: biochemical, Escherichia coli MT-10232 (FERM BP-19); settings: for activity at 20 µg/mL: impurity 20 ppm; for activity at 20 µg/mL / activity at 50 µg/mL / activity at 200 µg/mL / activity at 500 µg/mL / activity at 1000 µg/mL: 30° C., pH 8.5; for activity at 20 µg/mL / activity at 50 µg/mL / activity at 500 µg/mL / activity at 1000 µg/mL: ratio to enzyme left in reference solution; for activity at 50 µg/mL: impurity 50 ppm; for activity at 200 µg/mL: impurity 200 ppm, ratio to enzyme left in reference solution without organic substance; for level at which the impurity inhibits tryptophan synthase: enzyme synthesizing tryptophan from indole and L-serine; for activity at 500 µg/mL: impurity 500 ppm; for activity at 1000 µg/mL: impurity 1000 ppm
tryptophan synthase, sequence (P0A879 2-397): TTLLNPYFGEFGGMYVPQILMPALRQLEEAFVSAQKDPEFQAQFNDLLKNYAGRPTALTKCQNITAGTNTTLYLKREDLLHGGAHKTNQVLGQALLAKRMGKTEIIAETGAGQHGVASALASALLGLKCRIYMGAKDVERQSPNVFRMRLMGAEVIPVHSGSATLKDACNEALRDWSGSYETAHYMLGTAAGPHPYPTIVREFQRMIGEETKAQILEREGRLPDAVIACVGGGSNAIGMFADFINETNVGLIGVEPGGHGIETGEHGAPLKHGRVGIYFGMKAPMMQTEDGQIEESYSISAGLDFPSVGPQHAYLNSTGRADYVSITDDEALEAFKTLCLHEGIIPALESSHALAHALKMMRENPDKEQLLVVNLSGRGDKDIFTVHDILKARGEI
tryptophan synthase, sequence (P0A877 whole entry, further chain): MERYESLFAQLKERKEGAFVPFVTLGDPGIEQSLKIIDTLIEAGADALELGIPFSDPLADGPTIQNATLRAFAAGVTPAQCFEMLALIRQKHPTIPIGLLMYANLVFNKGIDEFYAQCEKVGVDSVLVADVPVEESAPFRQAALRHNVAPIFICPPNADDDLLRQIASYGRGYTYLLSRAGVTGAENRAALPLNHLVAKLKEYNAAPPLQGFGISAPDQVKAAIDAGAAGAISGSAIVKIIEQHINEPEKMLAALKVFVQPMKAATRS
Procedure: Escherichia coli MT-10232 (FERM BP-19), which is a tryptophan synthase-producing bacterium, was inoculated to 100 ml of the culture medium having the composition shown in Table 2 in a 500 ml flask, and was incubated at 35° C. for 24 hours. Two hundred milliliters (in two flasks) of the culture medium was inoculated to 15 1 of the culture medium having the composition shown in Table 3 in 30 1 of jar fermenter and was incubated at 35° C., pH 6.8 (adjusted with 28% aqueous ammonia) for 30 hours.
After the culture, the culture medium was centrifuged to collect 600 g wet weight of the bacterial cells. The cells were placed in a sealed container and restored in a refrigerator at 4° C., and were used for preparing the immobilized enzyme source.
One part of the above-described wet bacterial cells and one part of isotonic sodium chloride solution were mixed with stirring. On the other hand, 7.76 parts of distilled water and 0.24 parts of sodium alginate (NSPLL manufactured by Kibun Food Chemifa, Co., Ltd.) were mixed with stirring and pH thereof was adjusted to 8.5 with sodium hydroxide.
Two parts of the suspension of the cells and 8 parts of the sodium alginate solution were mixed with stirring and the resulting mixture was fed into a syringe and was dropped into a gelling solution from the tip of a needle with an inner diameter of 0.5 mm to 0.8 mm.
The particles formed by dropping the mixture into the gelling solution was matured under stirring in the gelling solution to obtain immobilized enzyme source.
To each of the aqueous solutions with a volume of 100 ml containing aniline, N-ethylaniline, o-ethylaniline, o-toluidine, 3-methylindole or 2-ethylindole in the amount shown in Table 4, […] of calcium chloride dihydrate and 1 mg of pyridoxal-5'-phosphate were added, and the pH thereof was adjusted to 8.5 with aqueous ammonia.
Further, as a reference solution, 100 ml of distilled water containing no organic substance was subjected to the same procedure as described above and the immobilized enzyme source was added thereto as mentioned above, followed by being left to stand at 30° C.
Twenty four hours later and 96 hours later, 1 g of immobilized enzyme source was removed from each of the solutions and the enzyme activity was determined. The ratio of the activity of the enzyme left in the solution of the organic substance to the activity of the enzyme left in the reference solution was determined and is shown in Table 4.
The enzyme activity was determined as follows:
Ten milliliters of reaction medium containing indole, L-serine, pyridoxal-5'-phosphate (PLP) and 0.3 g of the immobilized enzyme source was prepared and the reaction was conducted at 35° C. in a shaking incubator for 1 hour with shaking. The produced L-tryptophan was analyzed with high performance liquid chromatography.

[2] = room temperature; cited from earlier work
[3] = 24 h, read-out: Activity Ratio 24 Hours Later
[4] = 96 h, read-out: Activity Ratio 96 Hours Later

**Q.** Which activity at 20 µg/mL [1, 3] does the source give for `CCc1cc2ccccc2[nH]1` [2-ethylindole] here?
**A.** 93%

**Q.** What about the activity at 50 µg/mL [1, 3] of the same molecule?
**A.** 73%

**Q.** What about the activity at 200 µg/mL [1, 3] of the same molecule?
**A.** 68%

**Q.** And the activity at 20 µg/mL [1, 4]?
**A.** 71%

**Q.** And the activity at 50 µg/mL [1, 4]?
**A.** 54%

**Q.** And the activity at 200 µg/mL [1, 4]?
**A.** 48%

**Q.** What about the “level at which the impurity inhibits tryptophan synthase” value [1] of the same molecule?
**A.** about 20 ppm

**Q.** Which activity at 200 µg/mL [1, 3] does the source give for `Cc1c[nH]c2ccccc12` [3-methylindole] here?
**A.** 94%

**Q.** What about the activity at 500 µg/mL [1, 3] of the same molecule?
**A.** 94%

**Q.** What about the activity at 200 µg/mL [1, 4] of the same molecule?
**A.** 89%

**Q.** And the activity at 500 µg/mL [1, 4]?
**A.** 84%

**Q.** What about the “level at which the impurity inhibits tryptophan synthase” value [1] of the same molecule?
**A.** about 200 ppm

**Q.** Which activity at 200 µg/mL [1, 3] does the source give for `Cc1ccccc1N` [o-toluidine] here?
**A.** 97%

**Q.** What about the activity at 1000 µg/mL [1, 3] of the same molecule?
**A.** 88%

**Q.** And the activity at 200 µg/mL [1, 4]?
**A.** 106%

**Q.** And the activity at 1000 µg/mL [1, 4]?
**A.** 80%

**Q.** Which solubility in water [2] does the source give for `c1ccc2[nH]ccc2c1` [indole] here?
**A.** 3000 to 4000 µg/mL

**Q.** Which activity at 200 µg/mL [1, 3] does the source give for `CCc1ccccc1N` [o-ethylaniline] here?
**A.** 90%

**Q.** And the activity at 1000 µg/mL [1, 3]?
**A.** 71%

**Q.** And the activity at 200 µg/mL [1, 4]?
**A.** 77%

**Q.** What about the activity at 1000 µg/mL [1, 4] of the same molecule?
**A.** 50%

**Q.** What about the “level at which the impurity inhibits tryptophan synthase” value [1] of the same molecule?
**A.** about 200 ppm

**Q.** With `Nc1ccccc1` [Aniline] as the molecule, how does the activity at 200 µg/mL [1, 3] read?
**A.** 98%

**Q.** What about the activity at 1000 µg/mL [1, 3] of the same molecule?
**A.** 100%

**Q.** And the activity at 200 µg/mL [1, 4]?
**A.** 101%

**Q.** And the activity at 1000 µg/mL [1, 4]?
**A.** 82%

**Q.** With `CCNc1ccccc1` [N-ethylaniline] as the molecule, how does the activity at 200 µg/mL [1, 3] read?
**A.** 104%

**Q.** What about the activity at 1000 µg/mL [1, 3] of the same molecule?
**A.** 100%

**Q.** And the activity at 200 µg/mL [1, 4]?
**A.** 97%

**Q.** And the activity at 1000 µg/mL [1, 4]?
**A.** 89%
